Test results reported in PubChem BioAssay (NCI).
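1) Cells in 96-well plates. 2) Compound, 48 h, 5 concentrations. 3) Linear interpolation between surrounding doses. 4) Unreached endpoint = highest concentration. At the TGI there is no net growth.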

Assays:
Assay in all cases: inhibition of tumour cell growth, NCI panel, 48 h
786-0 renal = test system: 786-0 renal
A549 NSCLC = test system: A549 NSCLC
ACHN renal = test system: ACHN renal
CCRF-CEM leukemia = test system: CCRF-CEM leukemia
COLO 205 colon = test system: COLO 205 colon
DLD-1 colon = test system: DLD-1 colon
DMS 114 small cell lung = test system: DMS 114 small cell lung
DMS 273 small cell lung = test system: DMS 273 small cell lung
EKVX NSCLC = test system: EKVX NSCLC
HCC-2998 colon = test system: HCC-2998 colon
HCT-116 colon = test system: HCT-116 colon
HCT-15 colon = test system: HCT-15 colon
HOP-62 NSCLC = test system: HOP-62 NSCLC
HOP-92 NSCLC = test system: HOP-92 NSCLC
HT29 colon = test system: HT29 colon
IGROV1 ovarian = test system: IGROV1 ovarian
KM20L2 colon = test system: KM20L2 colon
LXFL 529 NSCLC = test system: LXFL 529 NSCLC
M14 melanoma = test system: M14 melanoma
M19-MEL melanoma = test system: M19-MEL melanoma
MALME-3M melanoma = test system: MALME-3M melanoma
MOLT-4 leukemia = test system: MOLT-4 leukemia
NCI-H226 lung = test system: NCI-H226 lung
NCI-H23 lung = test system: NCI-H23 lung
NCI-H460 lung = test system: NCI-H460 lung
NCI-H522 lung = test system: NCI-H522 lung
OVCAR-3 ovarian = test system: OVCAR-3 ovarian
OVCAR-4 ovarian = test system: OVCAR-4 ovarian
OVCAR-5 ovarian = test system: OVCAR-5 ovarian
OVCAR-8 ovarian = test system: OVCAR-8 ovarian
RPMI-8226 leukemia = test system: RPMI-8226 leukemia
RXF-631 renal = test system: RXF-631 renal
SF-268 CNS = test system: SF-268 CNS
SK-MEL-2 melanoma = test system: SK-MEL-2 melanoma
SK-MEL-28 melanoma = test system: SK-MEL-28 melanoma
SK-OV-3 ovarian = test system: SK-OV-3 ovarian
SN12C renal = test system: SN12C renal
SNB-19 CNS = test system: SNB-19 CNS
SNB-75 CNS = test system: SNB-75 CNS
SNB-78 CNS = test system: SNB-78 CNS
U251 CNS = test system: U251 CNS
UACC-257 melanoma = test system: UACC-257 melanoma
UACC-62 melanoma = test system: UACC-62 melanoma
UO-31 renal = test system: UO-31 renal
XF 498 CNS = test system: XF 498 CNS
A498 renal = test system: A498 renal
CAKI-1 renal = test system: CAKI-1 renal
HL-60(TB) leukemia = test system: HL-60(TB) leukemia
K-562 leukemia = test system: K-562 leukemia
KM12 colon = test system: KM12 colon
LOX IMVI melanoma = test system: LOX IMVI melanoma
RXF 393 renal = test system: RXF 393 renal
SF-295 CNS = test system: SF-295 CNS
SF-539 CNS = test system: SF-539 CNS
SK-MEL-5 melanoma = test system: SK-MEL-5 melanoma
SW-620 colon = test system: SW-620 colon
TK-10 renal = test system: TK-10 renal

COc1ccc(/C=C/c2cc(OC)c(OC(C)=O)c(OC)c2)cc1
TGI (786-0 renal): > 100 µM | TGI (A549 NSCLC): > 100 µM | TGI (ACHN renal): > 100 µM | TGI (CCRF-CEM leukemia): > 100 µM | TGI (COLO 205 colon): > 100 µM | TGI (DLD-1 colon): > 100 µM | TGI (DMS 114 small cell lung): 84.7 µM | TGI (DMS 273 small cell lung): > 100 µM | TGI (EKVX NSCLC): > 100 µM | TGI (HCC-2998 colon): 39 µM | TGI (HCT-116 colon): > 100 µM | TGI (HCT-15 colon): 80.6 µM | TGI (HOP-62 NSCLC): 73.7 µM | TGI (HOP-92 NSCLC): 65.1 µM | TGI (HT29 colon): > 100 µM | TGI (IGROV1 ovarian): > 100 µM | TGI (KM20L2 colon): > 100 µM | TGI (LXFL 529 NSCLC): > 100 µM | TGI (M14 melanoma): > 100 µM | TGI (M19-MEL melanoma): > 100 µM | TGI (MALME-3M melanoma): 88.1 µM | TGI (MOLT-4 leukemia): 95.9 µM | TGI (NCI-H226 lung): 96.6 µM | TGI (NCI-H23 lung): 61.4 µM | TGI (NCI-H460 lung): 60.4 µM | TGI (NCI-H522 lung): 46.1 µM | TGI (OVCAR-3 ovarian): > 100 µM | TGI (OVCAR-4 ovarian): > 100 µM | TGI (OVCAR-5 ovarian): 59 µM | TGI (OVCAR-8 ovarian): > 100 µM | TGI (RPMI-8226 leukemia): > 100 µM | TGI (RXF-631 renal): > 100 µM | TGI (SF-268 CNS): > 100 µM | TGI (SK-MEL-2 melanoma): > 100 µM | TGI (SK-MEL-28 melanoma): 25.3 µM | TGI (SK-OV-3 ovarian): > 100 µM | TGI (SN12C renal): 75.2 µM | TGI (SNB-19 CNS): > 100 µM | TGI (SNB-75 CNS): 60.5 µM | TGI (SNB-78 CNS): 76.1 µM | TGI (U251 CNS): 38.4 µM | TGI (UACC-257 melanoma): 66.9 µM | TGI (UACC-62 melanoma): 42.8 µM | TGI (UO-31 renal): 49.3 µM | TGI (XF 498 CNS): > 100 µM

NC(=S)N1N=C2CCCCCC[C@@H]2[C@H]1c1ccccc1
TGI (786-0 renal): > 100 µM | TGI (A498 renal): > 100 µM | TGI (A549 NSCLC): > 100 µM | TGI (ACHN renal): > 100 µM | TGI (CAKI-1 renal): > 100 µM | TGI (CCRF-CEM leukemia): > 100 µM | TGI (COLO 205 colon): > 100 µM | TGI (DLD-1 colon): > 100 µM | TGI (DMS 114 small cell lung): > 100 µM | TGI (DMS 273 small cell lung): > 100 µM | TGI (EKVX NSCLC): > 100 µM | TGI (HCC-2998 colon): > 100 µM | TGI (HCT-116 colon): > 100 µM | TGI (HCT-15 colon): > 100 µM | TGI (HL-60(TB) leukemia): 51.7 µM | TGI (HOP-62 NSCLC): > 100 µM | TGI (HT29 colon): > 100 µM | TGI (IGROV1 ovarian): > 100 µM | TGI (K-562 leukemia): > 100 µM | TGI (KM12 colon): > 100 µM | TGI (KM20L2 colon): > 100 µM | TGI (LOX IMVI melanoma): > 100 µM | TGI (LXFL 529 NSCLC): > 100 µM | TGI (M14 melanoma): > 100 µM | TGI (M19-MEL melanoma): > 100 µM | TGI (MALME-3M melanoma): > 100 µM | TGI (MOLT-4 leukemia): > 100 µM | TGI (NCI-H226 lung): > 100 µM | TGI (NCI-H23 lung): > 100 µM | TGI (NCI-H460 lung): > 100 µM | TGI (NCI-H522 lung): 82.9 µM | TGI (OVCAR-3 ovarian): > 100 µM | TGI (OVCAR-5 ovarian): > 100 µM | TGI (OVCAR-8 ovarian): > 100 µM | TGI (RPMI-8226 leukemia): 45 µM | TGI (RXF 393 renal): > 100 µM | TGI (SF-268 CNS): > 100 µM | TGI (SF-295 CNS): > 100 µM | TGI (SF-539 CNS): > 100 µM | TGI (SK-MEL-2 melanoma): > 100 µM | TGI (SK-MEL-28 melanoma): > 100 µM | TGI (SK-MEL-5 melanoma): > 100 µM | TGI (SK-OV-3 ovarian): > 100 µM | TGI (SN12C renal): > 100 µM | TGI (SNB-19 CNS): > 100 µM | TGI (SNB-75 CNS): > 100 µM | TGI (SNB-78 CNS): > 100 µM | TGI (SW-620 colon): > 100 µM | TGI (TK-10 renal): > 100 µM | TGI (U251 CNS): > 100 µM | TGI (UACC-257 melanoma): > 100 µM | TGI (UACC-62 melanoma): > 100 µM | TGI (UO-31 renal): > 100 µM | TGI (XF 498 CNS): 76.5 µM
